From patent US20040167061A1, “Substantially homogeneous bio-affecting material having a pre-determined ratio of bioaffecting component to cell targeting component, the method for making such a material and the method of its use” (priority 2003, published 2004)

Columns and labels:
[1] = test system: NADH-oxidase; settings: plasma membrane redox enzyme; cited from earlier work
[2] = test system: metastatic lesions from a sarcoma; settings: treatment begun August 2000
[3] = test system: advanced ovarian cancer; test: unpublished randomized clinical study in advanced ovarian cancer; format: in vivo, human; settings: equivalent to 1 mg doxorubicin per day on days 15 through 19 of monthly cycles; time between diagnosis and randomization 18 months
Procedure: There is an unpublished clinical study of 23 patients with advanced ovarian cancer who were randomized into test (12 patients) and placebo (11 patients) groups. The test group received transferrin-doxorubicin conjugates equivalent to 1 mg doxorubicin per day on days 15 through 19 of monthly treatment cycles.

[4] = test system: multi-drug resistant cells; settings: cited from earlier work
[5] = test system: leukemic cells in peripheral blood; settings: cited from earlier work
[6] = test system: human mesothelioma cells; settings: nude mice with (drug-resistant) human mesothelioma cells; compared to animals treated only with doxorubicin; cited from earlier work

Compound | inhibition of NADH-oxidase [1] | radiological evidence of tumor ([2]; by January) | metastatic lesions in the lungs ([2]; by November) | Cox regression estimates of survival rates, test versus placebo [3] | killing of multi-drug resistant cells [4] | decrease of number of leukemic cells in peripheral blood ([5]; 7 patients, 1 mg/day iv for 5 days, within 10-days following therapy) [%] | extension of disease ([5]; bone marrow biopsies before and after treatment) | toxic effects ([5]; seven acute leukemia patients, 1 mg/day intravenously for 5 days) | survival (prolonging life) [6]
COc1cccc2c1C(=O)c1c(O)c3c(c(O)c1C2=O)C[C@@](O)(C(=O)CO)C[C@@H]3O[C@H]1C[C@H](N)[C@H](O)[C@H](C)O1 [doxorubicin] | efficient inhibitor |  |  |  |  |  |  |  | 
transferrin-doxorubicin conjugates | inhibit | no radiological evidence of tumor | substantially cleared of metastatic lesions | significant difference | effectively kill |  |  |  | 
glutaraldehyde-prepared transferrin-doxorubicin conjugates |  |  |  |  |  | 86 | no extension of disease | no toxic effects | significantly prolonging life
